In paper PMC7918775, “Quality by Design Applied Development of Immediate-Release Rabeprazole Sodium Dry-Coated Tablet” (Pharmaceutics, 2021):
Entries after “also recorded” stand apart in the source; their conditions may differ. Read-outs that look alike come from different tables or passages of the source.

Experiments:
[1] = Stability of APIs in solution at various pH (content, appearance); assay type: physicochemical
physchem = conditions: water, thermodynamic from solid
Protocol: The solubility of each component in deionized water, solvents (ethanol, methanol), citric acid/sodium citrate buffer, and pH buffer was evaluated.
Each vial contained 10 mg rabeprazole sodium, and 200 µL of each solvent was slowly added. […] The solutions were filtered and then diluted 2000× to measure the quantity of rabeprazole sodium dissolved in the solution. Equilibrium or final rabeprazole sodium solubility was calculated from the HPLC peak. Peak area of sample solution × 100 × 100/Average of standard solution peak area ×1000

[2] = API-API compatibility study (impurities by HPLC); assay type: physicochemical
Protocol: (§1) The latter reflects the proportions of APIs in each commercialized tablet. The prepared samples were stored in a stability chamber for 4 weeks at room temperature of 25 ± 2 °C/ 60 ± 5% RH and under acceleration conditions of 40 ± 2 °C/ 75 ± 5% RH, respectively. […] If none were detected, an additional impurity test was performed to confirm compatibility.

[3] = cited from earlier work
[4] = cited from earlier work; remark: listed apart in the source
[5] = Rabeprazole sodium/excipient compatibility study (appearance, impurities by HPLC); assay type: physicochemical; conditions: 1:1 (w/w) mixtures, HPLC impurity test; threshold 3.5%
Protocol: as §1

[6] = Protocol: The solution was then stirred at 37 ± 2 °C for 1 h and filtered by polyvinylidene fluoride (PVDF) membrane filter. Next, 50 mL of the filtrate was obtained and titrated with hydrochloric acid with 0.1 M sodium hydroxide solution (pH measurement method) with an endpoint of pH 3.5.

## COCCCOc1ccnc(C[S+]([O-])c2nc3ccccc3[nH]2)c1C (stereo not drawn) [Rabeprazole sodium]
[1]; pH 1.2 to 6.0
  Rabeprazole sodium content measured according to pH: 30 to 60%
[1]; pH 8.0
  Time stable in solution: ~ 26 h
[1]; range of pH 1.2–12.0
  Appearance in buffers: changed in buffers with pH < 7.0; also recorded: transparent in buffers with pH > 8.0
physchem
  solubility: > 110 mg/mL
[2]; Accelerated Condition 40 °C/75% RH
  Impurities, 4 Weeks: 1.31%
[2]; Room Temperature 25 °C/60% RH
  Impurities, 4 Weeks: 0.07%
[2]; initial
  Impurities, Initial: 0.06%
[3]; Adolescents, Tablets
  Time to reach maximum plasma concentration: 3.3 to 4.1 h
[3]; Adults, Capsule
  Time to reach maximum plasma concentration: 1 to 6.5 h
[3]; Adults, Tablets
  Time to reach maximum plasma concentration: 2 to 5 h
[3]; Tablets
  Bioavailability: ~52%
[3]; adolescents
  Half-life (dose dependent): 33 to 60 min
[3]; adults
  Half-life (dose dependent): 60 to 120 min
[3]; in vivo
  Action onset time: ≤ 1 h
  Duration: 24 h
  Excretion: urine: 90%
  Metabolism: metabolized by CYP3A and 2C19 to inactive metabolites in the liver
  Protein binding rate: 96.3%
[3]; oral, with food
  Delay of absorption by food: up to 4 h or more
[3]; oral
  Absorption: Oral: well absorbed within 1 h
[3]; patients with mild to moderate hepatic impairment
  Half-life increase: 2–3 times
[4]; Water
  solubility: 10 mg/mL (Water)
[4]; aqueous solutions with pH < 3.0
  Decomposition half-life: < 10 min
[4]
  pKa (Strongest Acidic): 9.35
  pKa (Strongest Basic): 4.24
[5]
  Concentration of decomposition products: no decomposition products were formed

## O=C([O-])O.[Na+] [Sodium bicarbonate]
[3]; Intravenous (IV)
  Duration: 0.13 to 0.167 h
  Onset time of action: fast
[3]; in vivo
  Excretion: urine: < 1%
[3]; oral
  Duration: 1 to 3 h
  Onset time of action: 15 min
[4]; carbonic acid
  PKa (carbonic acid): 6.351
[4]
  PKa: 10.329
[6]; 200 mg sodium bicarbonate
  Acid-neutralizing capacity (0.1 M HCl consumption): 38 mL
[6]; 300 mg sodium bicarbonate
  Acid-neutralizing capacity (0.1 M HCl consumption): 42 mL
[6]; 400 mg sodium bicarbonate
  Acid-neutralizing capacity (0.1 M HCl consumption): 45 mL
[6]; 500 mg sodium bicarbonate
  Acid-neutralizing capacity (0.1 M HCl consumption): 49 mL
[6]; 600 mg sodium bicarbonate
  Acid-neutralizing capacity (0.1 M HCl consumption): 57 mL
[6]; 700 mg sodium bicarbonate
  Acid-neutralizing capacity (0.1 M HCl consumption): 68 mL
[6]; 800 mg sodium bicarbonate
  Acid-neutralizing capacity (0.1 M HCl consumption): 79 mL
[6]; 900 mg sodium bicarbonate
  Acid-neutralizing capacity (0.1 M HCl consumption): 84 mL
[6]; 1000 mg sodium bicarbonate
  Acid-neutralizing capacity (0.1 M HCl consumption): 89 mL
